Results on 4 molecules are retold here after patent EP0545103A1, “Insecticidal, acaricidal and molluscicidal 1-(substituted) thioalkylpyrroles” (priority 1991, dated 1993).

Holding throughout (assay type): in vivo
Experiment [1] has as its system Heliothis virescens, egg, tobacco budworm. The experiment can be described thus: Tobacco budworm egg test, dipped cotton leaf and eggs. Details: key: 0: no effect; 10-25% kill; 26-35% kill; 36-45% kill; 46-55% kill; 56-65% kill; 66-75% kill; 76-85% kill; 86-99% kill; 9: 100% kill. As to conditions: mortality rating after 3 days. An outline of the steps: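 Scoring is by mortality counts after 3 days, graded on a rating scale. Tobacco budworm eggs (6-30 h old) on cheesecloth and a young cotton leaf were each dipped about 3 s in the test suspension. Suspensions were made from a 10,000 ppm stock in 35% acetone/water with further water dilutions.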

Experiment [2] has as its system Aphis fabae, mixed instar, bean aphid. The experiment can be described thus: Bean aphid spray test on nasturtium. Details: key: 0: no effect; 10-25% kill; 26-35% kill; 36-45% kill; 46-55% kill; 56-65% kill; 66-75% kill; 76-85% kill; 86-99% kill; 9: 100% kill. To be noted: 100 ppm. As to the method: (§1) Test solutions are prepared by dissolving the test compound in a 35% acetone in water mixture to give a concentration of 10,000 ppm. Subsequent dilutions are made with water as needed.
Aphis fabae, mixed instar, bean aphid
Pots containing single nasturtium plants (Tropaeolum sp.) about 5 cm tall are infested with about 100-200 aphids one day prior to treatment. Each pot is sprayed with the test solution for 2 revolutions of a 4 rpm turntable in a hood, using a #154 DeVilbiss atomizer. The spray tip is held about 15 cm from the plant and the spray directed so as to give complete coverage of the plants and the aphids. The sprayed pots are set on their sides on white enamel trays and mortality estimates are made after 2 days.
(§2) All of the above tests are rated according to the rating scale shown below.

The test system of experiment [3] is Diabrotic undecimpunctata howardi, 3rd instar southern corn rootworm. The experiment can be described thus: Southern corn rootworm soil test. To be noted: mortality rating after 6 days. Further details: key: 0: no effect; 10-25% kill; 26-35% kill; 36-45% kill; 46-55% kill; 56-65% kill; 66-75% kill; 76-85% kill; 86-99% kill; 9: 100% kill. An outline of the steps:
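Soil test with ten 3rd instar larvae per jar, mortality read after 6 days and missing larvae counted as dead; scores on a rating scale. Doses were 1.25 and 0.25 mg a.i. per jar, corresponding to roughly 50 and 10 kg/ha, loaded on talc from acetone and mixed into moist soil with millet seed as food.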

For experiment [4], the system named is Spodoptera eridania, 3rd instar larvae, southern armyworm. The experiment can be described thus: Southern armyworm systemic uptake (stem systemic) test. Details: key: 0: no effect; 10-25% kill; 26-35% kill; 36-45% kill; 46-55% kill; 56-65% kill; 66-75% kill; 76-85% kill; 86-99% kill; 9: 100% kill. As to conditions: cut stem in emulsion 3 days.
Experiment [5] deals with Empoasca abrupta, adult, western potato leafhopper. The experiment can be described thus: Western potato leafhopper systemic uptake test. Details: key: 0: no effect; 10-25% kill; 26-35% kill; 36-45% kill; 46-55% kill; 56-65% kill; 66-75% kill; 76-85% kill; 86-99% kill; 9: 100% kill. To be noted: 100 ppm. As to the method: Empoasca abrupta, adult, western potato leafhopper Systemic Uptake
An emulsion containing 0.1 gm of the test material, 0.2 gm of Emulphor EL-620® emulsifier, 10 mL of acetone and 90 mL of water is prepared and diluted 10-fold with water to give a 100 ppm emulsion. Subsequent 10-fold dilutions are made with water as needed. Sieva limabean plants, with the primary leaves expanded to a length of 7-8 cm, are cut off at least 3 cm above the soil level to avoid contamination with soil bacteria which will cause decay of the stem during the test. The cut stem is placed in the test emulsion and wrapped with a bit of cotton to hold the stem off the bottom of the bottle and to limit evaporation. The treated stem is maintained for 3 days at 27°C to allow the test compound to be taken up into the plant. Following this, one leaf is removed from the plant and placed in a 100 x 10 mm petri dish containing a moist filter paper and about 10 adult leafhoppers as described above. Mortality counts are made after 2 days.
as §2

Experiment [6] has the same test system. The experiment can be described thus: Western potato leafhopper contact test, dipped limabean leaf. Details: key: 0: no effect; 10-25% kill; 26-35% kill; 36-45% kill; 46-55% kill; 56-65% kill; 66-75% kill; 76-85% kill; 86-99% kill; 9: 100% kill. As to the method: as §1
Empoasca abrupta, adult, western potato leafhopper
A Sieva limabean leaf about 5 cm long is dipped in the test solution for 3 seconds with agitation and placed in a hood to dry. The treated leaf is placed in a 100 x 10 mm petri dish containing a moist filter paper and about 10 adult leafhoppers are added. After 2 days, mortality counts are made.
as §2

Experiment [7] relates to Heliothis virescens, 3rd instar tobacco budworm. The experiment can be described thus: Tobacco budworm 3rd instar test, dipped cotton cotyledons. As to conditions: mortality rating after 3 days. Further details: key: 0: no effect; 10-25% kill; 26-35% kill; 36-45% kill; 46-55% kill; 56-65% kill; 66-75% kill; 76-85% kill; 86-99% kill; 9: 100% kill. An outline of the steps:
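Rating-scale scores of mortality and reduced feeding, taken 3 days after single third-instar larvae were caged on dried cotton cotyledon quarters. Cotyledons were pre-dipped in test solutions diluted with water from a 10,000 ppm stock in 35% acetone.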

In experiment [8] the test system is Tetranychus urticae (OP-resistant strain), 2-spotted spider mite. The experiment can be described thus: 2-spotted spider mite test, dipped infested limabean plants. Further details: key: 0: no effect; 10-25% kill; 26-35% kill; 36-45% kill; 46-55% kill; 56-65% kill; 66-75% kill; 76-85% kill; 86-99% kill; 9: 100% kill. As to the method:
as §1
Tetranychus urticae (OP-resistant strain), 2-spotted spider mite
Sieva limabean plants with primary leaves expanded to 7-8 cm are selected and cut back to one plant per pot. A small piece is cut from an infested leaf taken from the main colony and placed on each leaf of the test plants. This is done about 2 hours before treatment to allow the mites to move over to the test plant and to lay eggs. The size of the cut, infested leaf is varied to obtain about 100 mites per leaf. At the time of test treatment, the piece of leaf used to transfer the mites is removed and discarded. The newly mite-infested plants are dipped in the test solution for 3 seconds with agitation and set in the hood to dry. After 2 days one leaf is removed and mortality counts are made. After 5 days, another leaf is removed and observations are made of mortality of the eggs and/or newly emerged nymphs.
as §2

The test system of experiment [9] is Spodoptera eridania, 3rd instar larvae, southern armyworm. The experiment can be described thus: Southern armyworm 3rd instar test, dipped limabean leaf. As to conditions: for ARMYWORM Day 3: rating at 3 days; for ARMYWORM Day 5: rating at 5 days. An outline of the steps:
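Ten 3rd instar larvae fed on limabean leaves that had been dipped for 3 s in test solution and dried. Test solutions were diluted in water from a 10,000 ppm stock in 35% acetone/water. Ratings at days 3 and 5 covered death, feeding reduction and abnormal molting.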

Experiment [10] has the same test system. The experiment can be described thus: Southern armyworm 7-day residual test. To be noted: R designates Residual: 7-day residual foliage, concentration not given. The procedure, abridged: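 Third-instar southern armyworm larvae were exposed to lima bean foliage that had been treated, then held 7 days under greenhouse lamps simulating bright sun for 14 h per day. Treatment solutions were diluted in water from a 10,000 ppm stock in 35% acetone. Results are scale ratings.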

The mark [11] stands for this setting: systemic uptake, rating scale 0-9.
The mark [12] stands for this setting: 100 ppm, contact, rating scale 0-9.
Where [13] appears, read: 300 ppm, adult mites, rating scale 0-9.
Setting [14] is: 300 ppm, mite eggs, rating scale 0-9.
The mark [15] stands for this setting: 300 ppm, mite nymphs, rating scale 0-9.
Where [16] appears, read: spray, mortality rating after 2 days.
[17] abbreviates: cut stem in emulsion 3 days, mortality rating after 2 days.
The mark [18] stands for this setting: 10 ppm, mortality rating after 2 days.
Where [19] appears, read: 100 ppm, mortality rating after 2 days.

In the case of `CC(=O)SCn1c(Br)c(Br)c(C#N)c1Br` [Example 34], the “TOBACCO BUDWORM Egg” value in experiment [1] (1000 ppm) is on record as 8 (86-99% kill). Besides, in experiment [2] (rating scale 0-9), the APHIDS is given as 8 (86-99% kill). In addition, the “SOUTHERN CORN ROOTWORM” value in experiment [3] (50 (ppm as headed)) amounted to 0. The “ARMYWORM Stem Sys” value in experiment [4] was determined as 0. In experiment [5] (setting [11]), the “LEAFHOPPER Systemic” value came out at 0. Also, in [6] (setting [12]), the “LEAFHOPPER Contact” value came out at 0. For the same molecule, the “TOBACCO BUDWORM 3rd Instar” value in [7] (100 ppm) is listed as 0; in experiment [7] (1000 ppm), 9 (100% kill). In addition, the “OP-RESISTANT MITES Adult” value in experiment [8] (setting [13]) worked out at 0. In experiment [8] (setting [14]), the “OP-RESISTANT MITES Egg” value amounted to 0. In addition, the “OP-RESISTANT MITES Nymph” value in [8] (setting [15]) was found to be 0.
With `CN(C)C(=S)SCn1c(-c2ccc(Cl)c(Cl)c2)c(Br)c(C(F)(F)F)c1C(F)(F)F` [Example 33], the “TOBACCO BUDWORM Egg” value in [1] (1000 ppm) came to 0. This molecule had an APHIDS in experiment [2] (rating scale 0-9) of 0. Also, the “ARMYWORM Day 3” value in [9] (10 ppm), in [9] (100 ppm) and in experiment [9] (1000 ppm) was 9 (100% kill) each time. The “ARMYWORM Day 5” value in experiment [9] (10 ppm), in experiment [9] (100 ppm) and in experiment [9] (1000 ppm) was 9 (100% kill) each time. Also, the “ARMYWORM Stem Sys” value in experiment [4] came out at 0. Moreover, the “ARMYWORM Day 3 R” value in [10] (rating at 3 days) is listed as 9 (100% kill). For the same molecule, the “ARMYWORM Day 5 R” value in experiment [10] (rating at 5 days) is reported as 9 (100% kill). Moreover, the “LEAFHOPPER Systemic” value in experiment [5] (setting [11]) was found to be 0. Also, the “LEAFHOPPER Contact” value in experiment [6] (10 ppm, contact, rating scale 0-9) is 0; in [6] (setting [12]), 8 (86-99% kill). Further, the “OP-RESISTANT MITES Adult” value was 0 in [8] (10 ppm, adult mites, rating scale 0-9); 0 in experiment [8] (100 ppm, adult mites, rating scale 0-9); 7 (76-85% kill) in [8] (setting [13]). Also, the “OP-RESISTANT MITES Egg” value is 0 in [8] (10 ppm, mite eggs, rating scale 0-9); 8 (86-99% kill) in experiment [8] (100 ppm, mite eggs, rating scale 0-9); 0 in experiment [8] (setting [14]). In addition, the “OP-RESISTANT MITES Nymph” value in [8] (10 ppm, mite nymphs, rating scale 0-9) is on record as 0; in experiment [8] (100 ppm, mite nymphs, rating scale 0-9), 0; in experiment [8] (setting [15]) it was 0.
Take `CC(C)OC(=S)SCn1c(-c2ccc(Cl)cc2)c(C#N)c(Cl)c1C(F)(F)F` [Example 22]: in experiment [1] (1000 ppm), the “TOBACCO BUDWORM Egg” value is 0. Further, the APHIDS in [2] (setting [16]) is given as 7 (76-85% kill). In addition, the “ARMYWORM Day 3” value in experiment [9] (10 ppm), in [9] (100 ppm) and in [9] (1000 ppm) was 9 (100% kill) each time. The “ARMYWORM Day 5” value in experiment [9] (10 ppm), in experiment [9] (100 ppm) and in [9] (1000 ppm) was 9 (100% kill) throughout. In addition, the “ARMYWORM Stem Sys” value in experiment [4] is given as 0. The “LEAFHOPPER Systemic” value in [5] (setting [17]) is reported as 0. Also, the “LEAFHOPPER Contact” value in [6] (setting [18]) and in experiment [6] (setting [19]) was 9 (100% kill) throughout. In addition, the “OP-RESISTANT MITES Adult” value in [8] (setting [18]) is 9 (100% kill); in [8] (setting [19]), 9 (100% kill); in [8] (300 ppm, mortality rating after 2 days), 9 (100% kill). Besides, the “OP-RESISTANT MITES Egg” value in experiment [8] (10 ppm, rating after 5 days) is given as 9 (100% kill); in experiment [8] (100 ppm, rating after 5 days), 9 (100% kill); in experiment [8] (300 ppm, rating after 5 days), 0. In addition, the “OP-RESISTANT MITES Nymph” value in experiment [8] (300 ppm, rating after 5 days) is recorded as 9 (100% kill).
Regarding `N#Cc1c(Cl)c(C(F)(F)F)n(CSC(=N)N)c1-c1ccc(Cl)cc1` [Example 3], the “TOBACCO BUDWORM Egg” value is reported as 0 in experiment [1] (100 ppm) and 5 (56-65% kill) in [1] (1000 ppm). The molecule further returned an APHIDS in experiment [2] (setting [16]) of 0. The results for the “SOUTHERN CORN ROOTWORM” value in experiment [3] (1 (ppm as headed)), in [3] (10 (ppm as headed)) and in experiment [3] (50 (ppm as headed)) were 0, 0 and 9 (100% kill), respectively. The “ARMYWORM Day 5” value in experiment [9] (10 ppm), in experiment [9] (100 ppm) and in experiment [9] (1000 ppm) was 9 (100% kill) each time. Besides, the “ARMYWORM Stem Sys” value in [4] is on record as 0. Besides, in experiment [5] (setting [17]), the “LEAFHOPPER Systemic” value is given as 0. Besides, the “LEAFHOPPER Contact” value in experiment [6] (setting [18]) and in [6] (setting [19]) was 9 (100% kill) in each case. For the same molecule, the “OP-RESISTANT MITES Nymph” value in experiment [8] (10 ppm, rating after 5 days) is reported as 0; in experiment [8] (300 ppm, rating after 5 days), 9 (100% kill).
